These results are taken from patent US9290451B2 (Hoffmann-La Roche Inc., priority 2011, dated 2016).

pEC50: −log10 of the molar value.

For one assay, the target named is human CB1 receptors (Homo sapiens (Human), UniProt P21554). Put plainly: cAMP assay, CHO cells expressing human CB1 receptors. The note with it: CHO cells expressing human CB1, cAMP; read-out: human CB1 EC50. In kind it is cell-based. In outline:
(§1)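 CHO cells, KRB buffer + 1 mM IBMX, 30 min 30 °C preincubation; compound 30 min 30 °C; lysis + TR-FRET cAMP detection, 2 h RT; cAMP from standard curve (10 μM–0.13 nM); EC50.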
In general terms: Changes in cAMP serve as a functional read-out for many G protein-coupled receptors.

In another assay the target is human CB2 receptors (Homo sapiens (Human), UniProt P34972). The assay can be described thus: cAMP assay, CHO cells expressing human CB2 receptors. The assay is classed as cell-based. The note with it: CHO cells expressing human CB2, cAMP; read-out: human CB2 EC50. The method in brief:
as §1

Chain of human CB1 receptors (P21554 whole entry): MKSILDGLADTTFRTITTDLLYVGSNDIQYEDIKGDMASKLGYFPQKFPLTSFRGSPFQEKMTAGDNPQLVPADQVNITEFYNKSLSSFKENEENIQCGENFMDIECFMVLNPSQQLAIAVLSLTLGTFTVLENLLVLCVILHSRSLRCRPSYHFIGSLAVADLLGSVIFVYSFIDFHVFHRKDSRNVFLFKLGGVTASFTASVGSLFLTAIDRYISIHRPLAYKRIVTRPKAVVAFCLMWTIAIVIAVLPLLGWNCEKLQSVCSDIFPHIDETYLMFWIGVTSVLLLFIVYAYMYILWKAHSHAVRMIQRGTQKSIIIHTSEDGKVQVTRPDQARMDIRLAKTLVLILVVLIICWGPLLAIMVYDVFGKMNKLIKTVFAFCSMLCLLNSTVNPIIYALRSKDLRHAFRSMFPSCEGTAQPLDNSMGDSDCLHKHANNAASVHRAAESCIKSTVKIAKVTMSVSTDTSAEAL
Chain of human CB2 receptors (P34972 whole entry): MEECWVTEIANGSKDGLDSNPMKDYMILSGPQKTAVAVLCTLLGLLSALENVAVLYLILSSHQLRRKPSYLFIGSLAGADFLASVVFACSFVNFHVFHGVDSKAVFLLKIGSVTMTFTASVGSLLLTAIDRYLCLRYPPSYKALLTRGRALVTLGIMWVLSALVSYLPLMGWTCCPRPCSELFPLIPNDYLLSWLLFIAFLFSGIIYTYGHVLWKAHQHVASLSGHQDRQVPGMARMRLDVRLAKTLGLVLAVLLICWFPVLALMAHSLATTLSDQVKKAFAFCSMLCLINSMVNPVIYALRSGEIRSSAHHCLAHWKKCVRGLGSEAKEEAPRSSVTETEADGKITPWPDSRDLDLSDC

For orientation: pEC50 means −log10 of the EC50, conventionally taken in molar units. Regarding `O=C(N[C@@H](c1ccccn1)C(F)(F)F)c1ccc(C2CC2)c(OCC2CC2)n1` [Example 240, 5-Cyclopropyl-6-cyclopropylmethoxy-pyridine-2-carboxylic acid ((−)-2,2,2-trifluoro-1-pyridin-2-yl-ethyl)-amide], the figures for the pEC50 on human CB1 receptors and at human CB2 receptors were < 5.00 and 7.18, respectively.
The matching figures for `Cc1nc([C@@H](C)NC(=O)c2ccc(C3CC3)c(OCC3CC3)n2)no1` [Example 241, 5-Cyclopropyl-6-cyclopropylmethoxy-pyridine-2-carboxylic acid [(−)-1-(5-methyl-[1,2,4]oxadiazol-3-yl)-ethyl]-amide]: < 5.00 and 7.31.
For `Cc1nc([C@H](CC(C)C)NC(=O)c2ccc(C3CC3)c(OCC3CC3)n2)no1` [Example 242, 5-Cyclopropyl-6-cyclopropylmethoxy-pyridine-2-carboxylic acid [(+)-3-methyl-1-(5-methyl-[1,2,4]oxadiazol-3-yl)-butyl]-amide] the same measures were < 5.00 and 8.92.
Take `Cc1nc([C@@H](CC(C)C)NC(=O)c2ccc(C3CC3)c(OCC3CC3)n2)no1` [Example 243, 5-Cyclopropyl-6-cyclopropylmethoxy-pyridine-2-carboxylic acid [(−)-3-methyl-1-(5-methyl-[1,2,4]oxadiazol-3-yl)-butyl]-amide]: the values for the pEC50 on human CB1 receptors and at human CB2 receptors were 6.08 and 7.66, respectively.
Turning to `CC[C@H](NC(=O)c1ccc(C2CC2)c(OCC2CC2)n1)c1noc(C)n1` [Example 244, 5-Cyclopropyl-6-cyclopropylmethoxy-pyridine-2-carboxylic acid [(+)-1-(5-methyl-[1,2,4]oxadiazol-3-yl)-propyl]-amide], the pEC50 at human CB1 receptors is < 5.00; on human CB2 receptors it was 7.85.
As to `CC[C@@H](NC(=O)c1ccc(C2CC2)c(OCC2CC2)n1)c1noc(C)n1` [Example 245, 5-Cyclopropyl-6-cyclopropylmethoxy-pyridine-2-carboxylic acid [(−)-1-(5-methyl-[1,2,4]oxadiazol-3-yl)-propyl]-amide], the pEC50 on human CB1 receptors was < 5.00; on human CB2 receptors it was 7.69.
The matching figures for `C[C@@H](C#N)NC(=O)c1ccc(C2CC2)c(OCC2CC2)n1` [Example 246, 5-Cyclopropyl-6-cyclopropylmethoxy-pyridine-2-carboxylic acid ((−)-cyano-methyl-methyl)-amide]: 5.61 and 6.67.
`CC(C)C[C@H](C#N)NC(=O)c1ccc(C2CC2)c(OCC2CC2)n1` [Example 247, 5-Cyclopropyl-6-cyclopropylmethoxy-pyridine-2-carboxylic acid ((−)-1-cyano-3-methyl-butyl)-amide]: the pEC50 was < 5.00 on human CB1 receptors and 8.25 on human CB2 receptors.
For the compound `N#C[C@H](NC(=O)c1ccc(C2CC2)c(OCC2CC2)n1)C1CC1` [Example 248, 5-Cyclopropyl-6-cyclopropylmethoxy-pyridine-2-carboxylic acid ((+)-cyano-cyclopropyl-methyl)-amide], the pEC50 is < 5.00 at human CB1 receptors and 7.29 at human CB2 receptors.
For `CCC(CC)(NC(=O)c1ccc(C(F)(F)F)c(OCC2CC2)n1)C(=O)OC` [Example 249, 2-[(6-Cyclopropylmethoxy-5-trifluoromethyl-pyridine-2-carbonyl)-amino]-2-ethyl-butyric acid methyl ester] the same measures were < 5.00 and 8.66.
The matching figures for `CCC(CC)(NC(=O)c1ccc(C2CC2)c(OCC2CCCO2)n1)C(=O)NC` (stereo not drawn) [Example 250, 5-Cyclopropyl-6-(tetrahydro-furan-2-ylmethoxy)-pyridine-2-carboxylic acid (1-ethyl-1-methylcarbamoyl-propyl)-amide]: < 5.00 and 8.02.
The matching figures for `CCC(CC)(NC(=O)c1ccc(C2CC2)c(OCC2CC2)n1)C(=O)OC` [Example 251, 2-[(5-Cyclopropyl-6-cyclopropylmethoxy-pyridine-2-carbonyl)-amino]-2-ethyl-butyric acid methyl ester]: 7.04 and 8.85.
As for `CCC(CC)(NC(=O)c1ccc(C(F)(F)F)c(OCC2CC2)n1)C(=O)O` [Example 252, 2-[(6-Cyclopropylmethoxy-5-trifluoromethyl-pyridine-2-carbonyl)-amino]-2-ethyl-butyric acid], the figures for the negative logarithm of the EC50 (pEC50) on human CB1 receptors and at human CB2 receptors were < 5.00 and 6.26, respectively.
With `CCC(CC)(NC(=O)c1ccc(C(F)(F)F)c(OCC2CCOCC2)n1)C(=O)NC` [Example 253, 6-(Tetrahydro-pyran-4-ylmethoxy)-5-trifluoromethyl-pyridine-2-carboxylic acid (1-ethyl-1-methylcarbamoyl-propyl)-amide], the pEC50 was < 5.00 at human CB1 receptors and 7.84 on human CB2 receptors.
The matching figures for `CCOC(=O)C(CC)(CC)NC(=O)c1ccc(C(F)(F)F)c(OCC2CCCO2)n1` (stereo not drawn) [Example 254, 2-Ethyl-2-{[6-(tetrahydro-furan-2-ylmethoxy)-5-trifluoromethyl-pyridine-2-carbonyl]-amino}-butyric acid ethyl ester]: 6.29 and 8.64.
For `CN(C)C(=O)C(NC(=O)c1ccc(N2CC(F)(F)C2)c(OCC2CC2)n1)c1ccccc1` (stereo not drawn) [Example 255, 6-Cyclopropylmethoxy-5-(3,3-difluoro-azetidin-1-yl)-pyridine-2-carboxylic acid (dimethylcarbamoyl-phenyl-methyl)-amide] the same measures were < 5.00 and 7.21.
The matching figures for `CN(C)C(=O)[C@H](CC1CC1)NC(=O)c1ccc(N2CC(F)(F)C2)c(OCC2CC2)n1` [Example 256, 6-Cyclopropylmethoxy-5-(3,3-difluoro-azetidin-1-yl)-pyridine-2-carboxylic acid ((S)-2-cyclopropyl-1-dimethylcarbamoyl-ethyl)-amide]: < 5.00 and 8.03.
`CCOC(=O)C(CC)(CC)NC(=O)c1ccc(C2CC2)c(OCC2CC2)n1` [Example 257, 2-[(5-Cyclopropyl-6-cyclopropylmethoxy-pyridine-2-carbonyl)-amino]-2-ethyl-butyric acid ethyl ester]: the figures for the pEC50 on human CB1 receptors and at human CB2 receptors were 6.46 and 8.64, respectively.
For `COC(=O)[C@H](CC1CC1)NC(=O)c1ccc(C2CC2)c(OCC2CC2)n1` [Example 258, (S)-3-Cyclopropyl-2-[(5-cyclopropyl-6-cyclopropylmethoxy-pyridine-2-carbonyl)-amino]-propionic acid methyl ester] the same measures were < 5.00 and 8.15.
The matching figures for `CCC(CC)(NC(=O)c1ccc(C(F)(F)F)c(OCC2CC2)n1)C(=O)NC` [Example 259, 6-Cyclopropylmethoxy-5-trifluoromethyl-pyridine-2-carboxylic acid (1-ethyl-1-methylcarbamoyl-propyl)-amide]: < 5.00 and 8.29.
For `Cc1nc([C@@H](NC(=O)c2cccc(-c3ccc(F)c(Cl)c3)n2)C2CC2)no1` [Example 260, 6-(3-Chloro-4-fluoro-phenyl)-pyridine-2-carboxylic acid [(−)-cyclopropyl-(5-methyl-[1,2,4]oxadiazol-3-yl)-methyl]-amide] the same measures were < 5.00 and 7.60.
